Earlier results, collected in patent US20110052650A1, “POROUS CRYSTALLINE HYBRID SOLID FOR ADSORBING AND RELEASING GAS OF BIOLOGICAL INTEREST” (Centre National De La Recherche Scientifique - CNR S, priority 2008, published 2011).

In the case of `S` [H2S], the pKa is given as 6.8.
